Here are results for one compound from patent US20080039816A1, “Carbohydrate-Encapsulated Quantum Dots for Bilogical Imaging” (The Government of the United States of America as …, priority 2004, published 2008).

The nature of the series: Storage stability of thiol ligands (dimerization to disulfide). Format: physicochemical. As to the method: In a second, alternative approach for hydrolysis, the debenzylidinated thioester (300 mg) was dissolved in methanol (5 ml). […] Air was bubbled through the solution and the solution was stirred at room temperature and allowed to react for 24 hours. […] The Thomsen-Friedenreich-disulfide of formula VII (130 mg) was then dissolved in distilled water (1 ml) and degassed with argon for 20 minutes. Dithiothreitol (130 mg) was added and the solution allowed to react for 20 minutes. The excess dithiothreitol was then removed by several extractions with ethyl acetate. The residue was then purified by reverse phase flash chromatography on a C-18 column with an aqueous solution of methanol (10%-40% (v/v)) to yield the Thomsen-Friedenreich-thiol of formula VI.
After 30 min, the reaction was carefully neutralized with strongly acidic ion-exchange resin Amberlite®-120, filtered and concentrated. Purification was accomplished on a Strata® SI-1 silica gel cartridge eluting with 20% MeOH in CH2Cl2.

The structures appear in SMILES notation.

Consider `CC(=O)NC1C(OCCCCCS)OC(CO)C(O)C1OC1OC(CO)C(O)C(O)C1O` (centres unmarked) [formula 3], for which the “stability upon standing at room temperature” value (room temperature) is “oxidizes to the Thomsen-Friedenreich-disulfide of formula VII”. The “storage stability (dimerization)” value (stored at −20° C. (under argon)) is listed as “without significant dimerization for weeks”.
